Legend:
Assay type in all cases: in vivo
[1] = system: barnyardgrass (Echinochloa crus-galli); test: Test A preemergence, barnyardgrass; conditions: Preemergence; for Plant response rating, Barnyardgrass: 125 g ai/ha, visual injury, 0 to 100 scale (0 no effect, 100 complete control), approx. 10 days; for Barnyardgrass plant response rating: 500 g ai/ha, visual injury on 0 to 100 scale (0 no effect, 100 complete control), approximately 10 days
Excerpt: (§1) Seeds of plant species selected from barnyardgrass (Echinochloa crus-galli), kochia (Bassia scoparia), ragweed (common ragweed, Ambrosia artemisiifolia), Ryegrass, Italian (Italian ryegrass, Lolium multiflorum), Foxtail, Giant (giant foxtail, Setaria faberi), and pigweed (Amaranthus retroflexus) were planted into a blend of loam soil and sand and treated preemergence with a directed soil spray using test chemicals formulated in a non-phytotoxic solvent mixture which included a surfactant. At the same time, plants selected from these weed species and also wheat (Triticum aestivum), corn (Zea mays), blackgrass (Alopecurus myosuroides), and galium (catchweed bedstraw, Galium aparine) were planted in pots containing the same blend of loam soil and sand and treated with postemergence applications of test chemicals formulated in the same manner. Plants ranged in height from 2 to 10 cm and were in the one- to two-leaf stage for the postemergence treatment. […] A dash (-) response means no test result.

kochia (Bassia scoparia) [2] = test: Test A preemergence, kochia; conditions: Preemergence; for Plant response rating, Kochia: 125 g ai/ha, visual injury, 0 to 100 scale (0 no effect, 100 complete control), approx. 10 days; for Kochia plant response rating: 500 g ai/ha, visual injury on 0 to 100 scale (0 no effect, 100 complete control), approximately 10 days
Excerpt: as §1

[3] = system: ragweed (common ragweed, Ambrosia artemisiifolia); test: Test A preemergence, ragweed; conditions: Preemergence; for Plant response rating, Ragweed: 125 g ai/ha, visual injury, 0 to 100 scale (0 no effect, 100 complete control), approx. 10 days; for Ragweed plant response rating: 500 g ai/ha, visual injury on 0 to 100 scale (0 no effect, 100 complete control), approximately 10 days
Excerpt: as §1

[4] = system: Foxtail, Giant (giant foxtail, Setaria faberi); test: Test A preemergence, Foxtail, Giant; conditions: Preemergence; for Plant response rating, Foxtail, Giant: 125 g ai/ha, visual injury, 0 to 100 scale (0 no effect, 100 complete control), approx. 10 days; for Foxtail, Giant plant response rating: 500 g ai/ha, visual injury on 0 to 100 scale (0 no effect, 100 complete control), approximately 10 days
Excerpt: as §1

[5] = system: barnyardgrass (Echinochloa crus-galli); test: Test A postemergence, barnyardgrass; conditions: Postemergence, 0 to 100 scale (0 no effect, 100 complete control)
Excerpt: as §1

[6] = system: galium (catchweed bedstraw, Galium aparine); test: Test A postemergence, galium; conditions: Postemergence, 0 to 100 scale (0 no effect, 100 complete control)
Excerpt: as §1

[7] = system: blackgrass (Alopecurus myosuroides); test: Test A postemergence, blackgrass; conditions: Postemergence, 0 to 100 scale (0 no effect, 100 complete control)
Excerpt: as §1

kochia (Bassia scoparia) [8] = test: Test A postemergence, kochia; conditions: Postemergence, 0 to 100 scale (0 no effect, 100 complete control)
Excerpt: as §1

[9] = system: ragweed (common ragweed, Ambrosia artemisiifolia); test: Test A postemergence, ragweed; conditions: Postemergence, 0 to 100 scale (0 no effect, 100 complete control)
Excerpt: as §1

corn (Zea mays) = test: Test A postemergence, corn; conditions: Postemergence, 0 to 100 scale (0 no effect, 100 complete control)
Excerpt: as §1

[10] = system: wheat (Triticum aestivum); test: Test A postemergence, wheat; conditions: Postemergence, 0 to 100 scale (0 no effect, 100 complete control)
Excerpt: as §1

[11] = system: pigweed (Amaranthus retroflexus); test: Test A postemergence, pigweed; conditions: Postemergence, 0 to 100 scale (0 no effect, 100 complete control)
Excerpt: as §1

[12] = system: Ryegrass, Italian (Italian ryegrass, Lolium multiflorum); test: Test A preemergence, Ryegrass, Italian; conditions: Preemergence; for Plant response rating, Ryegrass, Italian: 125 g ai/ha, visual injury, 0 to 100 scale (0 no effect, 100 complete control), approx. 10 days; for Ryegrass, Italian plant response rating: 500 g ai/ha, visual injury on 0 to 100 scale (0 no effect, 100 complete control), approximately 10 days
Excerpt: as §1

[13] = system: Foxtail, Giant (giant foxtail, Setaria faberi); test: Test A postemergence, Foxtail, Giant; conditions: Postemergence, 0 to 100 scale (0 no effect, 100 complete control)
Excerpt: as §1

[14] = system: Ryegrass, Italian (Italian ryegrass, Lolium multiflorum); test: Test A postemergence, Ryegrass, Italian; conditions: Postemergence, 0 to 100 scale (0 no effect, 100 complete control)
Excerpt: as §1

[15] = 500 g ai/ha, visual injury approx. 10 days

SMILES	Plant response rating, Barnyardgrass [1]	Barnyardgrass plant response rating [1]	Plant response rating, Kochia (kochia (Bassia scoparia) [2])	Kochia plant response rating (kochia (Bassia scoparia) [2])	Plant response rating, Ragweed [3]	Ragweed plant response rating [3]	Plant response rating, Foxtail, Giant [4]	Foxtail, Giant plant response rating [4]	Plant response rating, Barnyardgrass ([5]; 125 g ai/ha)	Plant response rating, Barnyardgrass [5, 15]	Plant response rating, Galium ([6]; 125 g ai/ha)	Plant response rating, Galium [6, 15]	Plant response rating, Blackgrass ([7]; 125 g ai/ha)	Plant response rating, Blackgrass [7, 15]	Plant response rating, Kochia (kochia (Bassia scoparia) [8]; 125 g ai/ha)	Plant response rating, Kochia (kochia (Bassia scoparia) [8]; [15])	Plant response rating, Ragweed ([9]; 125 g ai/ha)	Plant response rating, Ragweed [9, 15]	Plant response rating, Corn (corn (Zea mays); 125 g ai/ha)	Plant response rating, Corn (corn (Zea mays); [15])	also measured
Cc1cc(Cl)c(NS(=O)(=O)C(F)(F)F)cc1C(=O)N1CCOCC1C (stereo not drawn) [Compound 245]	90	100	80	80	90	90	100	100	90	90	90	90	40	60	40	60	90	90	20	60	Plant response rating, Wheat ([10]; 125 g ai/ha): 60; Plant response rating, Wheat [10, 15]: 60; Plant response rating, Pigweed ([11]; 125 g ai/ha): 80; Plant response rating, Pigweed [11, 15]: 90; Plant response rating, Ryegrass, Italian [12]: 80; Ryegrass, Italian plant response rating [12]: 100; Plant response rating, Foxtail, Giant ([13]; 125 g ai/ha): 50; Plant response rating, Foxtail, Giant [13, 15]: 90; Plant response rating, Ryegrass, Italian ([14]; 125 g ai/ha): 70; Plant response rating, Ryegrass, Italian [14, 15]: 80
CC(=O)N(c1cc(N2CCC3(CCCCC3)C2=O)c(C)cc1C)S(=O)(=O)C(F)(F)F [Compound 265]	90	100	90	90	90	90	100	100	60	80	90	90	30	20	40	50	60	80	20	60	Plant response rating, Wheat ([10]; 125 g ai/ha): 30; Plant response rating, Wheat [10, 15]: 60; Plant response rating, Pigweed ([11]; 125 g ai/ha): 60; Plant response rating, Pigweed [11, 15]: 90; Plant response rating, Ryegrass, Italian [12]: 90; Ryegrass, Italian plant response rating [12]: 100; Plant response rating, Foxtail, Giant ([13]; 125 g ai/ha): 0; Plant response rating, Foxtail, Giant [13, 15]: 20; Plant response rating, Ryegrass, Italian ([14]; 125 g ai/ha): 20; Plant response rating, Ryegrass, Italian [14, 15]: 70
COC(=O)N(c1cc(N2CCC3(CCCCC3)C2=O)c(C)cc1C)S(=O)(=O)C(F)(F)F [Compound 266]	0	40	0	0	0	0	0	20	0	20	30	90	30	0	0	10	0	10	0	0	Plant response rating, Wheat ([10]; 125 g ai/ha): 0; Plant response rating, Wheat [10, 15]: 0; Plant response rating, Pigweed ([11]; 125 g ai/ha): 0; Plant response rating, Pigweed [11, 15]: 0; Plant response rating, Ryegrass, Italian [12]: 0; Ryegrass, Italian plant response rating [12]: 0; Plant response rating, Foxtail, Giant ([13]; 125 g ai/ha): 0; Plant response rating, Foxtail, Giant [13, 15]: 0; Plant response rating, Ryegrass, Italian ([14]; 125 g ai/ha): 0; Plant response rating, Ryegrass, Italian [14, 15]: 0
Cc1cc(C)c(N(S(=O)(=O)C(F)(F)F)S(=O)(=O)C(F)(F)F)cc1N1CC2(CCCCC2)OC1=O [Compound 269]	100	100	70	100	80	90	100	100	0	20	70	90	20	20	30	50	40	90	0	10	Plant response rating, Wheat ([10]; 125 g ai/ha): 0; Plant response rating, Wheat [10, 15]: 20; Plant response rating, Pigweed ([11]; 125 g ai/ha): 30; Plant response rating, Pigweed [11, 15]: 70; Plant response rating, Ryegrass, Italian [12]: 80; Ryegrass, Italian plant response rating [12]: 100; Plant response rating, Foxtail, Giant ([13]; 125 g ai/ha): 0; Plant response rating, Foxtail, Giant [13, 15]: 0; Plant response rating, Ryegrass, Italian ([14]; 125 g ai/ha): 0; Plant response rating, Ryegrass, Italian [14, 15]: 20

Source: patent US20230278972A1, “SUBSTITUTED HALOALKYL SULFONANILIDE HERBICIDES” (FMC Corporation, priority 2020, published 2023)
